# Assays:
# A549 cells [1] = experiment: Caspase-3/7 analysis (Caspase-Glo 3/7); format: cell-based, human; conditions: A549, 80 μM, 24 hours
# Experimental: (§1) Breast cancer cells and lung cancer cells were treated with ciclesonide at different concentrations for 24 hours. Caspase-3/7 activity was measured in accordance with the manufacturer's protocol for the Caspase-Glo 3/7 kit (Promega, Wisconsin, USA). 100 μl of a Caspase-Glo 3/7 reagent was added to a 96-well plate where cancer cells were cultured. The plate was covered with a plate sealer, followed by culture at room temperature for 1 hour, and measured using a plate-reading luminometer, GloMax® Explorer (Promega, Wisconsin, USA).
# MDA-MB-231 cells [2] = experiment: Caspase-3/7 analysis (Caspase-Glo 3/7); format: cell-based, human; conditions: MDA-MB-231, 40 μM and 80 μM, 24 hours
# Experimental: as §1
# Snail = experiment: Real-time PCR of CSC markers in tumorspheres; format: cell-based, human; conditions: RT-PCR, vs group not treated
# Experimental: (§2) The levels of transcripts were measured with a One Step SYBR PrimeScript RT-PCR kit (Takara, Tokyo, Japan) using SYBR green as a double-stranded DNA-specific dye in accordance with the manufacturer's protocol. One-step RT-PCR was performed on 1 μg of total RNA, 10 μl of 2× One Step SYBR RT-PCR Buffer IV, and 1 μl of PrimeScript 1 step Enzyme Mix II using PCR forward and reverse primers of each of CD44, NANOG, OCT4, C-myc, Sox2, Snail, and β-actin at a final volume of 20 μl per reaction.
# (§3) The relative expression level of mRNA of the target gene was calculated using a comparative CT method. At least three independent PCR procedures were performed in accordance with statistical analysis. PCR products were normalized with the […] gene as an internal control.
# Nanog = experiment: Real-time PCR of CSC markers in tumorspheres; format: cell-based, human; conditions: RT-PCR, vs group not treated
# Experimental: as §2, §3
# C-myc = experiment: Real-time PCR of CSC markers in tumorspheres; format: cell-based, human; conditions: RT-PCR, vs group not treated
# Experimental: as §2, §3
# Sox2 = experiment: Real-time PCR of CSC markers in tumorspheres; format: cell-based, human; conditions: RT-PCR, vs group not treated
# Experimental: as §2, §3
# A549 cells [3] = experiment: Apoptosis analysis by fluorescence staining (Hoechst 33258); format: cell-based, human; conditions: A549, 30 μM, 24 hours
# Experimental: (§4) MDA-MB-231 cells were treated with 20 μM ciclesonide or A549 cells were treated with 30 μM ciclesonide, for 24 hours and the cells were incubated in 10 mg/ml of a Hoechst 33258 solution at 37° C. for 30 minutes. Subsequently, the cells were observed using a fluorescence microscope.
# MDA-MB-231 cells [4] = experiment: as above; format: cell-based, human; conditions: MDA-MB-231, 20 μM, 24 hours
# Experimental: as §4
# IL-8 = experiment: Human inflammatory cytokine assay (CBA), tumorspheres; format: cell-based; conditions: A549 tumorspheres
# Experimental: Mixed capture beads were vortexed and 50 μl of beads were added to assay tubes. 50 μl of human inflammatory cytokine standard and the cultured tumorsphere solution were added to the assay tubes, and then mixed with a cytokine PE solution. After 3 hours, the mixed solution was washed and analyzed by flow cytometry (Accuri C6, BD, San Diego, Calif., USA).
# A549 cells [5] = experiment: Scratch migration analysis; format: cell-based, human; conditions: A549, wound healing at 18 hours
# Experimental: (§5) MDA-MB-231 cells or A549 cells were inoculated into a 6-well plate and grown to 90% confluency. A scratch was made on the cell layer using a sterile white micropipette tip. After washing with DMEM medium, the breast cancer cells or lung cancer cells were treated with ciclesonide or DMSO. At 18 hours, wounded areas were photographed using an optical microscope at a magnification of ×40.
# MDA-MB-231 cells [6] = experiment: Scratch migration analysis; format: cell-based, human; conditions: MDA-MB-231, wound healing at 18 hours
# Experimental: as §5
# [7] = tested on: MDA-MB-231 cell-derived mammospheres; experiment: Mammosphere formation; format: cell-based, human
# Experimental: (§6) Human breast cancer cells, MCF-7, were obtained from American Type Culture Collection (ATCC; Manassas, Va., USA). MCF-7 cells and MDA-MB-231 cells were cultured in Dulbecco's Modified Essential Medium (DMEM; Hyclone, Logan, Utah, USA) containing 10% fetal bovine serum (FBS; Hyclone), 100 U/ml of penicillin, and 100 μg/ml of streptomycin (Hyclone). The MCF-7 cells were maintained in a humidified incubator containing 5% CO2 at 37° C. The cells were plated in 10 cm culture dishes at a density of 1×10^6 cells. To establish primary mammospheres, single cell-suspended MCF-7 cells were inoculated into ultra-low attachment 6-well plates containing 2 ml of complete MammoCult™ medium (StemCell Technologies, Vancouver, BC, Canada) at a density of 3.5 to 4×10^4 cells/well. The complete MammoCult™ medium was supplemented with 4 μg/ml of heparin, 0.48 μg/ml of hydrocortisone, 100 U/ml of penicillin, and 100 μg/ml of streptomycin. The cells were incubated in a 5% CO2 incubator at 37° C. for 7 days.
# (§7) On day 10 of culture, cell culture plates were placed on a scanner (Epson Perfection V700 PHOTO, Epson Korea, Co, Seoul, Korea) to obtain 8-bit gray scale images of mammospheres. The images were acquired using a NICE software program downloaded from ftp://ftp.nist.gov/pub/physics/mlclarke/NICE at a low resolution of 300 dpi. For counting, a desired number of rows and columns (e.g., 2×3 for a 6-well plate) were selected to generate ROIs and after selecting the elliptical setting of the NICE program, the individual ROIs were defined by adjusting the movement and size of the provided ROI shapes. The background signals of the images were negated using a threshold algorithm, and the selected images were automatically counted. To analyze the formation of mammospheres, mammosphere formation efficiency (MFE, %) was determined by the following equation: MFE (%)=the number of mammospheres per well/a total number of plated cells per well×100.
# [8] = tested on: MCF-7 cell-derived mammospheres; experiment: Mammosphere formation; format: cell-based, human
# Experimental: as §6, §7
# A549 cells [9] = experiment: Clonogenic assay; format: cell-based, human; conditions: A549, 10 μM
# Experimental: (§8) MDA-MB-231 cells or A549 cells were inoculated at low density in a 6-well plate, and, in a DMEM medium, the MDA-MB-231 cells were treated with different concentrations of ciclesonide, or the A549 cells were treated with 10 μM ciclesonide. After 24 hours, the medium was replaced with a new medium and cultured for […] to allow the cells to grow. The grown colonies were counted.
# MDA-MB-231 cells [10] = experiment: Clonogenic assay; format: cell-based, human
# Experimental: as §8
smiles,measurement,setting,value
CC(C)C(=O)OCC(=O)[C@@]12O[C@H](C3CCCCC3)O[C@@H]1C[C@H]1[C@@H]3CCC4=CC(=O)C=C[C@]4(C)[C@H]3[C@@H](O)C[C@@]12C [ciclesonide],caspase 3/7 activity,A549 cells [1],induced
same,caspase 3/7 activity,MDA-MB-231 cells [2],induced
same,expression of Snail,Snail,reduced
same,expression of Nanog,Nanog,reduced
same,expression of C-myc,C-myc,reduced
same,expression of Sox2,Sox2,reduced
same,formation of apoptotic bodies,A549 cells [3],apoptotic bodies were formed
same,formation of apoptotic bodies,MDA-MB-231 cells [4],apoptotic bodies were formed
same,production level of IL-8,IL-8,reduced
same,migration,A549 cells [5],inhibited
same,migration,MDA-MB-231 cells [6],inhibited
same,growth of breast cancer stem cells,"[7]; MDA-MB-231 mammospheres, 10 μM",significantly inhibited
same,size of the mammospheres,[7]; MDA-MB-231 primary mammospheres,reduced
same,reduction of the number of mammospheres,"[7]; MDA-MB-231 primary mammospheres, 10 μM, 7 days",90%
same,growth of breast cancer stem cells,"[8]; MCF-7 mammospheres, 10 μM",significantly inhibited
same,size of the mammospheres,[8]; MCF-7 primary mammospheres,reduced
same,reduction of the number of mammospheres,"[8]; MCF-7 primary mammospheres, 5 μM or 10 μM, 7 days",90%
same,colony formation,A549 cells [9],inhibited
same,colony formation,MDA-MB-231 cells [10],inhibited

# From patent US11191746B2, “Composition for inhibiting a growth of cancer stem cells comprising ciclesonide” (JEJU NATIONAL UNIVERSITY INDUSTRY-ACADEMIC COOPERATION …, priority 2016, dated 2021)
